Test results as given in patent EP4631931A1, “HDAC INHIBITOR AND USE THEREOF” (Wigen Biomedicine Technology (Shanghai) Co., Ltd., priority 2022, dated 2024).
pEC50, pIC50: −log10 of the molar value.

Key:
Jurkat cell = experiment: Inhibition of Jurkat cell proliferation (CTG, intracellular ATP); format: cell-based; details: Homo sapiens, 72 h, compared to DMSO group, read-out: Inhibitory activity against Jurkat cell proliferation (IC50)
Experimental: (§1) Jurkat or 293T cells were seeded into a 96-well plate at 3000 cells/well. After overnight adherence culture, the serially diluted compound in DMSO was added. After 72 h, the intracellular ATP level was determined by CTG. The IC50 for the inhibition of cell proliferation by the compounds was calculated compared to the DMSO group. Table 8. Inhibitory activity of compounds of the present disclosure against Jurkat/293T cell proliferation (IC50, µM)

293T cell = experiment: Inhibition of 293T cell proliferation (CTG, intracellular ATP); format: cell-based; details: Homo sapiens, HEK-293T, 72 h, compared to DMSO group, read-out: Inhibitory activity against 293T cell proliferation (IC50)
Experimental: as §1

[1] = Pharmacokinetic experiment in mice; format: in vivo, CD-1 female mice; details: female, CD-1, mouse, plasma; for Vd: read-out: Vdss
Experimental: CD-1 female mice aged 7 to 10 weeks were intravenously administered and orally administered at doses of 1 mg/kg and 10 mg/kg, respectively. The mice were fasted for at least 12 h before the administration and given food 4 h after the administration, and they were given ad libitum access to water during the experiment.
On the day of the experiment, animals in the intravenous group were given the corresponding compound by single injection via the tail vein at an administration volume of 10 mL/kg; and animals in the oral group were given the corresponding compound by single intragastric injection at an administration volume of 10 mL/kg. The animals were weighed before administration, and the administration volume was calculated according to the body weight. The sample collection time points were 0.083 h, 0.167 h, 0.5 h, 1 h, 2 h, 4 h, 8 h, and 24 h. About 200 µL of whole blood was collected through the orbital venous plexus at each time point and used to prepare plasma for concentration determination by high-performance liquid chromatography-tandem mass spectrometry (LC-MS/MS). The plasma concentrations were processed using a non-compartmental model of Winnolin pharmacokinetic software, and the pharmacokinetic parameters were calculated using a linear-log trapezoidal method. Table 13. Results of in vivo pharmacokinetic evaluation of compounds of the present disclosure

[2] = Stability in liver microsomes; format: in vitro ADME; details: 1 µM compound, NADPH, 37 °C
Experimental: After the 1 µM compound was incubated with 0.5 mg/mL of human or mouse liver microsomes and an NADPH regeneration system at 37 °C for different times, respectively, LC-MS-MS was used to analyze the remaining amount of the compound and calculate T1/2. Table 12. Evaluation results of stability of compounds of the present disclosure in human and mouse liver microsomes

HeLa cells = experiment: Intracellular acetyl lysine / H3K 27 acetyl lysine level by ELISA; format: cell-based; details: 24 h of treatment
Experimental: HeLa cells were seeded into a 96-well plate at 20000 cells/well. After overnight adherence culture, the serially diluted compound was added. After 24 h of treatment, intracellular levels of acetyl lysine and H3K 27 acetyl lysine were quantified by ELISA. Table 9. Effect of compound of the present disclosure on levels of acetyl lysine and H3K 27 acetyl lysine

OVCAR 3 cells = experiment: NK cell-mediated tumor cell killing (NK92 cells, GFP count); format: cell-based; details: Homo sapiens, 72 h compound, 1-4 h co-culture, compared to DMSO group, read-out: EC50 in promoting the NK92 cell-mediated OVCAR 3 cell death
Experimental: OVCAR 3 cells […] expressing GFP were seeded into a 96-well plate at 4000 cells/well. After overnight adherence culture, the serially diluted compounds were added, and the plate was incubated for another 72 h. After the two types of cells were mixed and cultured for another 1-4 h, NK92 cells were removed by washing with PBS, and adherent GFP-positive tumor cells were counted. The EC50 of the compounds in promoting the NK92 cell-mediated OVCAR 3 cell death was calculated compared to the DMSO group. Table 11. NK cell-mediated tumor cell killing by compounds of the present disclosure

[3] = test system: Mouse colon cancer MC38 cells; experiment: In vivo efficacy in MC-38 model; parameters: species or system C57BL6N mice; details: small molecules 15mg/kg PO QD, PD-1 1mg/kg IV QW, BDO 2mg/kg IP QW, 21 days
Experimental: (§2) Female C57BL6N mice (aged 6 weeks, 18-22 g) were provided by Vital River Laboratory Animal Technology Co., Ltd. (China) and used one week after quarantine and acclimation. All animals were kept in a room at 23±2 °C with a relative humidity of 50±5%, artificial lighting was provided from 08:00 to 20:00 every day, and the air was exchanged 13-18 times per hour. Mouse colon cancer MC38 cells were cultured conventionally in 1640 medium containing 10% fetal bovine serum in an incubator at 37 °C with 5% CO2. After being subcultured, the cells were collected when they reached the desired amount. The C57BL6N mice were subcutaneously injected with 2 × 10^6 MC38 cells on the right side to form tumors. After the tumors grew to about 100 mm^3, the animals were randomly grouped for administration. Tumor volumes were measured with a caliper on day 3, day 7, day 10, day 14, day 17, and day 21 after the administration. […] The toxicity of the compounds was evaluated according to the body weight and state of the mice.
Table 15. In vivo efficacy of some of the compounds of the present disclosure in MC-38 model

[4] = test system: Mouse colon cancer CT-26 cells; experiment: In vivo efficacy in CT-26 model; parameters: species or system BALB/c mice; details: small molecules 15mg/kg PO QD, PD-1 1mg/kg IV QW, BDO 2mg/kg IP QW, 21 days
Experimental: as §2, with “BALB/c” for “C57BL6N”, “CT-26” for “MC38”, “10^5 CT-26” for “10^6 MC38”
Table 16. In vivo efficacy of some of the compounds of the present disclosure in CT-26 model

[5] = Injection (1 mg/kg), intravenous
[6] = Human liver microsomes 0.5 mg/mL
[7] = Mouse liver microsomes 0.5 mg/mL

| SMILES | pIC50 (Jurkat cell) | AUC(0-t) [1, 5] [ng·h/mL] | clearance [1, 5] [mL/min/kg] | half-life [1, 5] [h] | Vd [1, 5] [L/kg] | AUC(0-t) ([1]; Oral administration (10 mg/kg)) [ng·h/mL] | Cmax ([1]; Oral administration (10 mg/kg)) [ng/mL] | Tmax ([1]; Oral administration (10 mg/kg)) [h] | bioavailability ([1]; Oral administration (10 mg/kg)) [%] | half-life ([1]; Oral administration (10 mg/kg)) [h] | CLint scaled at 1 µM [2, 6] [mL/min/kg] | Clliver [2, 6] [mL/min/kg] | half-life at 1 µM [2, 6] [h] | CLint scaled at 1 µM [2, 7] [mL/min/kg] | Clliver [2, 7] [mL/min/kg] | half-life at 1 µM [2, 7] [h] | pIC50 (293T cell) | Acetyl lysine Maximum (%) (HeLa cells) | Acetyl lysine Minimum effective concentration (HeLa cells) [nM] | H3K 27 Acetyl lysine Maximum (%) (HeLa cells) | also measured |
| --- | --- | --- | --- | --- | --- | --- | --- | --- | --- | --- | --- | --- | --- | --- | --- | --- | --- | --- | --- | --- | --- |
| [2H]c1cc(F)cc(N)c1NC(=O)c1ccc(CNC(=O)/C=C/c2cccnc2)cc1 [Compound 3] | 5.73 | 592 | 28.1 | 2.78 | 0.93 | 1770 | 2350 | 0.08 | 26.3 | 2.21 | – | – | – | – | – | – | 5.12 | – | – | – | – |
| [2H]c1cc(CNC(=O)/C=C/c2cccnc2)ccc1C(=O)Nc1ccc(F)cc1N [Compound 4] | 5.77 | 602 | 27.7 | 3.05 | 1.32 | 1710 | 1740 | 0.08 | 28.5 | 3.9 | 19.5 | 10.03 | 1.49 | 244 | 65.74 | 0.373 | 5.49 | – | – | – | – |
| [2H]c1cc(NC(=O)c2ccc(CNC(=O)/C=C/c3cccnc3)cc2)c(N)cc1F [Compound 1, (E)-N-(2-amino-4-fluorophenyl-5-d)-4-((3-(pyridin-3-yl)acrylamido)methyl)benzamide] | 6.07 | 401 | 41.5 | 2.41 | 2.19 | 1890 | 3450 | 0.08 | 45.3 | 2.76 | – | – | – | – | – | – | < 5.00 | 430 | 16 | 360 | H3K 27 Acetyl lysine Minimum effective concentration (HeLa cells): 80 nM; pEC50 (OVCAR 3 cells): 7.36; Change in body weight [3]: +17.6%; TGI(%) ([3]; 6 mice per group): 35.7%; Change in body weight [4]: +17.6%; TGI(%) ([4]; 6 mice per group): 35.7% |
| [2H]c1c(F)ccc(NC(=O)c2ccc(CNC(=O)/C=C/c3cccnc3)cc2)c1N [Compound 2] | 5.77 | 441 | 37.8 | 2.3 | 1.61 | 2160 | 2360 | 0.08 | 46.5 | 1.85 | – | – | – | – | – | – | < 5.00 | 420 | 16 | 360 | H3K 27 Acetyl lysine Minimum effective concentration (HeLa cells): 80 nM |
| [2H]c1cncc(/C=C/C(=O)NCc2ccc(C(=O)Nc3ccc(F)cc3N)cc2)c1 [Compound 11] | 6.02 | 733 | 22.7 | 1.79 | 0.62 | 1330 | 2370 | 0.08 | 18.2 | 1.19 | 23.7 | 11.04 | 1.22 | 231 | 64.76 | 0.394 | 5.29 | 450 | 80 | 460 | H3K 27 Acetyl lysine Minimum effective concentration (HeLa cells): 80 nM |

More lines, main results first:

| pIC50 (Jurkat cell) | AUC(0-t) [1, 5] [ng·h/mL] | clearance [1, 5] [mL/min/kg] | half-life [1, 5] [h] | Vd [1, 5] [L/kg] | AUC(0-t) ([1]; Oral administration (10 mg/kg)) [ng·h/mL] | Cmax ([1]; Oral administration (10 mg/kg)) [ng/mL] | Tmax ([1]; Oral administration (10 mg/kg)) [h] | bioavailability ([1]; Oral administration (10 mg/kg)) [%] | half-life ([1]; Oral administration (10 mg/kg)) [h] | CLint scaled at 1 µM [2, 6] [mL/min/kg] | Clliver [2, 6] [mL/min/kg] | half-life at 1 µM [2, 6] [h] | CLint scaled at 1 µM [2, 7] [mL/min/kg] | Clliver [2, 7] [mL/min/kg] | half-life at 1 µM [2, 7] [h] | SMILES | pIC50 (293T cell) | Acetyl lysine Maximum (%) (HeLa cells) | Acetyl lysine Minimum effective concentration (HeLa cells) [nM] | H3K 27 Acetyl lysine Maximum (%) (HeLa cells) | also measured |
| --- | --- | --- | --- | --- | --- | --- | --- | --- | --- | --- | --- | --- | --- | --- | --- | --- | --- | --- | --- | --- | --- |
| 5.97 | 1000 | 16.6 | 1.48 | 0.44 | 1050 | 1640 | 0.17 | 10.5 | 1.21 | 4.59 | 3.75 | 6.32 | 118 | 50.99 | 0.773 | [2H]c1ncccc1/C=C/C(=O)NCc1ccc(C(=O)Nc2ccc(F)cc2N)cc1 [Compound 9] | 5.29 | – | – | – | – |
| 5.80 | 903 | 36.9 | 1.01 | 1.21 | 1430 | 824 | 0.08 | 29.6 | 1.87 | 18.4 | 9.73 | 1.58 | 285 | 68.41 | 0.319 | [2H]/C(=C\C(=O)NCc1ccc(C(=O)Nc2ccc(F)cc2N)cc1)c1cccnc1 [Compound 8] | 5.40 | – | – | – | – |
| 5.80 | 514 | 32.4 | 1.17 | 0.71 | 1610 | 2080 | 0.17 | 30.5 | 1.93 | 2.87 | 2.52 | 10.1 | 108 | 49.05 | 0.844 | [2H]c1ccc(/C=C/C(=O)NCc2ccc(C(=O)Nc3ccc(F)cc3N)cc2)cn1 [Compound 12] | 5.27 | – | – | – | – |
